Experimental data: patent US20210299176A1, “COMPOSITIONS AND METHODS FOR TREATING CANCER AND AUTOIMMUNE DISEASES” (CEDARS-SINAI MEDICAL CENTER, priority 2018, published 2021)

How the values were obtained:
B16 melanoma = B16 melanoma implantation in C57 BL mice, treatment with GITR agonist; format: in vivo; conditions: intraperitoneal 30 mg/kg twice per week vs DMSO control; p=0.0333, log rank
Experimental: After implantation of B16 melanoma, C57 BL mice underwent treatment with 11702 GITR agonist or DMSO control. (A) Animals lived longer after GITR agonist intraperitoneal 30 mg/kg treatment twice per week (p=0.0333, log rank). (B) Tumor volume was inhibited in 11702 treated animals (p<0.05, Anova).
After implantation of B16 melanoma, C57 BL mice underwent treatment with 11702 GITR agonist or DMSO control. […] (B) Tumor volume was inhibited in 11702 treated animals (p<0.05, Anova).

[1] = test system: CD4+CD25- cells (T effector cells); test: T cell suppression assay (CFSE proliferation of T effector cells, FACS); format: cell-based, human; conditions: for inhibition (decrease) of T cell proliferation: T effector without T-reg
Description: FIGS. 1A-1B show the results of where PBMC was isolated (Ficoll, GE Healthcare) from the WBC cone collected from healthy platelet donor. Cells were washed and passed through 40 um cell strainer before being stained with T cell surface antibodies. Then cells were put on cell sorter (BD FACSARIA III). Specific cell populations were collected as follows: CD4^+CD25^− cells (T effector cells), CD4^+CD25^+CD45RA^+CD127^− cells (T regulatory cells) and CD3^− cells (serve as Antigen Presenting Cells, APC). T effector cells were labeled with CellTrace CFSE (Invitrogen), heavily washed before cell number counting. Effector cells and T-regs were then mixed together at 1:1 ratio in culture media (RPMI 1640, 10% FBS, Pen-Strep and 1% NEAA) which enhanced with anti-CD3 (3 ug/ml) anti-CD28 (2 ug/ml) antibodies. APCs were treated with Mitomycin (50 ug/ml) for 30 minutes at 37° C., 5% CO2 incubator, then added to culture mix (APC:T-eff 2:1) as a proliferation co-stimulator. Cell mixture was incubated at 37° C., 5% CO2 for 6 days before being re-stained with T cell surface markers (CD4, CD25) and sent for FACS analysis. (A) T-eff fully stimulated; (B) T-eff fully stimulated+T-reg (1:1).
PBMC was isolated and specific human T cell populations were collected as follows: CD4^+CD25^− cells (T effector cells), CD4^+CD25^+CD45RA^+CD127^− cells (T regulatory cells) and CD3^− cells (serve as Antigen Presenting Cells, APC). T effector cells were labeled with CellTrace CFSE and effector cells and T-regs were then mixed together at 1:1 ratio in culture media (RPMI 1640, 10% FBS, Pen-Strep and 1% NEAA) which enhanced with anti-CD3 (3 ug/ml) anti-CD28 (2 ug/ml) antibodies. APCs were treated with Mitomycin (50 ug/ml) for 30 minutes at 37° C., 5% CO2 incubator, then added to culture mix (APC:T-eff 2:1) as a proliferation co-stimulator, incubated, and sent for FACS analysis. Molecule 11702 agonist and 11704 antagonist were added to treat groups respectively at a concentration gradient of 5 uM, 25 uM and 50 uM.
PBMC was isolated (Ficoll, GE Healthcare) from the WBC cone collected from healthy platelet donor. Cells were washed and passed through 40 um cell strainer before being stained with T cell surface antibodies. Then cells were put on cell sorter (BD FACSARIA III). Specific cell populations were collected as follows: CD4^+CD25^− cells (T effector cells), CD4^+CD25^+CD45RA^+CD127^− cells (T regulatory cells) and CD3^− cells (serve as Antigen Presenting Cells, APC). T effector cells were labeled with CellTrace CFSE (Invitrogen), heavily washed before cell number counting. Effector cells and T-regs were then mixed together at 1:1 ratio in culture media (RPMI 1640, 10% FBS, Pen-Strep and 1% NEAA) which enhanced with anti-CD3 (3 ug/ml) anti-CD28 (2 ug/ml) antibodies. […]

SMILES | survival of animals (B16 melanoma) | inhibition at 50 µM ([1]; Homo sapiens, T-cell, T effector + T-reg (1:1), 50 uM, read-out: inhibition (decrease) of proliferation compared to base line) [%] | effect on T effector cell population ([1]; T cell suppression assay, with and without Tregs, more effective in the presence of Tregs) | inhibition (decrease) of T cell proliferation ([1]; 5 uM) | inhibition (decrease) of T cell proliferation ([1]; 25 um)
OCC1OC(Nc2ccc(-c3ccc(NC4CC(O)C(CO)O4)cc3)cc2)CC1O (centres unmarked) [RMGL171102] | lived longer | – | – | – | –
O=C(CCCCC(=O)NN=Cc1cccc(O)c1)NN=Cc1cccc(O)c1 [RMGL171104] | – | 55.9 | dose dependent retraction of T effector cells | no significant effect | no significant effect
